Source: patent US4442090A, “Absorption-promoting compounds, compositions thereof with pharmaceuticals and/or bases for rectal administration and method of use” (Kyoto Yakuhin Kogyo Kabushiki Kaisha, priority 1980, dated 1984)

Legend:
[1] = Urinary excretions of β-lactam antibiotics after rectal suppository (rabbit); assay type: in vivo; conditions: Compound (I) 5%, Witepsol H-15
Experimental: The absorption into the circulation through the rectum of the rectal suppositories thus prepared was determined by measuring urinary excretion of the pharmacologically-active substance.
Thus, Sarcina lutea and Bacillus subtilis were used as assay organisms for penicillins and cephalosporins, respectively, and the assays were performed by the paper disk method (cultivation at 37° C. for from 15 to 20 hours).

[2] = Urinary excretions of AB-PC after administration of AB-PC rectal suppository (human); assay type: in vivo; conditions: AB-PC 125 mg (potency), added compound 10%, Witepsol H-15, % of dose
Experimental: The thus-obtained suppositories were administered to healthy adult male humans from the anus, and the urinary excretions of AB-PC were determined.

With `CCCCOc1ccc(C(=O)N[C@@H](Cc2ccccc2)C(=O)O)cc1` [Compound 20-Na, N--(4-Butoxybenzoyl)phenylalanine] the “Urinary excretions (%) 0-2 hr.” value ([1]; 6059-S 125 mg (potency)) was 46.0%, the “Urinary excretions (%) 2-4 hr.” value ([1]; 6059-S 125 mg (potency)) was 15.2% and the “Urinary excretions (%) 4-6 hr.” value ([1]; 6059-S 125 mg (potency)) was 4.1%. The “Urinary excretions (%) Total (0-6 hr.)” value ([1]; 6059-S 125 mg (potency)) was 65.3%.

For `CCCCCCCC(=O)OCC` [Ethyl caprylate, reference compound], the “Urinary excretions of AB-PC (%) (0-6 hr.)” value [2] was 2.9%.

For `CCCCCCCCCC(=O)NCCC(=O)O` [Compound 16-Na, N--(n-Caprinoyl)-β-alanine], the “Urinary excretions (%) 0-2 hr.” value ([1]; Cefmetazole 125 mg (potency)) was 43.1%, the “Urinary excretions (%) 2-4 hr.” value ([1]; Cefmetazole 125 mg (potency)) was 19.9% and the “Urinary excretions (%) 4-6 hr.” value ([1]; Cefmetazole 125 mg (potency)) was 2.9%. The “Urinary excretions (%) Total (0-6 hr.)” value ([1]; Cefmetazole 125 mg (potency)) was 69.1%.

With `Nc1ccc(C(=O)O)cc1` [P--Aminobenzoic acid Na, P--Aminobenzoic acid, reference compound] the “Urinary excretions of AB-PC (%) (0-6 hr.)” value [2] was 4.9%.

In the case of `CCCCN(CCCC)C(=O)CCC(=O)O` [Compound 15-Na, N,N--Di-(n-butyl)succinamic acid], the “Urinary excretions (%) 0-2 hr.” value ([1]; Cefmetazole 125 mg (potency)) is reported as 44.0%, the “Urinary excretions (%) 2-4 hr.” value ([1]; Cefmetazole 125 mg (potency)) is reported as 20.0% and the “Urinary excretions (%) 4-6 hr.” value ([1]; Cefmetazole 125 mg (potency)) is reported as 1.0%. The “Urinary excretions (%) Total (0-6 hr.)” value ([1]; Cefmetazole 125 mg (potency)) was 65.9%.

With `CC(=O)NCC(=O)[O-].[Na+]` [N--Acetylglycine Na, N--Acetylglycine, reference compound] the “Urinary excretions of AB-PC (%) (0-6 hr.)” value [2] was 2.5%.

For `CCCCCCCCNC(=O)c1ccccc1C(=O)O` [Compound 14-Na, 2-Carboxy-N--(n-octyl)benzamide], the “Urinary excretions (%) 0-2 hr.” value ([1]; FK-749 125 mg (potency)) was 41.2%, the “Urinary excretions (%) 2-4 hr.” value ([1]; FK-749 125 mg (potency)) was 19.0% and the “Urinary excretions (%) 4-6 hr.” value ([1]; FK-749 125 mg (potency)) was 1.8%. The “Urinary excretions (%) Total (0-6 hr.)” value ([1]; FK-749 125 mg (potency)) was 62.0%.

With `CCCCCCCC(=O)N(C)c1ccc(C(=O)O)cc1` [Compound 18-Na, N--(n-Caprylyl)-4-methylaminobenzoic acid] the “Urinary excretions (%) 0-2 hr.” value ([1]; 6059-S 125 mg (potency)) was 42.2%, the “Urinary excretions (%) 2-4 hr.” value ([1]; 6059-S 125 mg (potency)) was 18.8% and the “Urinary excretions (%) 4-6 hr.” value ([1]; 6059-S 125 mg (potency)) was 3.6%. The “Urinary excretions (%) Total (0-6 hr.)” value ([1]; 6059-S 125 mg (potency)) was 64.6%.

With `CCCCCCCCCCNC(=O)/C=C\C(=O)O` [Compound 13-Na, N--(n-Decyl)maleamic acid] the “Urinary excretions (%) 0-2 hr.” value ([1]; FK-749 125 mg (potency)) was 39.1%, the “Urinary excretions (%) 2-4 hr.” value ([1]; FK-749 125 mg (potency)) was 18.0% and the “Urinary excretions (%) 4-6 hr.” value ([1]; FK-749 125 mg (potency)) was 2.1%. For the same compound, the “Urinary excretions (%) Total (0-6 hr.)” value ([1]; FK-749 125 mg (potency)) was 59.2%.

For `CCCCCC(=O)N[C@@H](Cc1c[nH]c2ccccc12)C(=O)O` [Compound 22-Na, N--Caproyl-L-tryptophan], the “Urinary excretions (%) 0-2 hr.” value ([1]; Cefazolin 125 mg (potency)) was 40.5%, the “Urinary excretions (%) 2-4 hr.” value ([1]; Cefazolin 125 mg (potency)) was 16.0% and the “Urinary excretions (%) 4-6 hr.” value ([1]; Cefazolin 125 mg (potency)) was 2.0%. For the same compound, the “Urinary excretions (%) Total (0-6 hr.)” value ([1]; Cefazolin 125 mg (potency)) was 58.5%, the “Urinary excretions (%) 0-2 hr.” value ([1]; Cephalothin 125 mg (potency)) was 19.5% and the “Urinary excretions (%) 2-4 hr.” value ([1]; Cephalothin 125 mg (potency)) was 2.5%. For the same compound, the “Urinary excretions (%) 4-6 hr.” value ([1]; Cephalothin 125 mg (potency)) was 0.2% and the “Urinary excretions (%) Total (0-6 hr.)” value ([1]; Cephalothin 125 mg (potency)) was 22.2%.

In the case of `CCCCCCCCCCCC(=O)N[C@H](C(=O)O)C(C)C` [Compound 25-Na, N--Lauroyl-L-valine], the “Urinary excretions (%) 0-2 hr.” value ([1]; Cefmetazole 125 mg (potency)) is reported as 45.0%, the “Urinary excretions (%) 2-4 hr.” value ([1]; Cefmetazole 125 mg (potency)) is reported as 10.0% and the “Urinary excretions (%) 4-6 hr.” value ([1]; Cefmetazole 125 mg (potency)) is reported as 2.0%. The “Urinary excretions (%) Total (0-6 hr.)” value ([1]; Cefmetazole 125 mg (potency)) was 57.0%.

For `CCCCCCCCCCNC(=O)CCC(=O)O` [Compound 12-Na, N--(n-Decyl)succinamic acid], the “Urinary excretions (%) 0-2 hr.” value ([1]; FK-749 125 mg (potency)) was 40.1%, the “Urinary excretions (%) 2-4 hr.” value ([1]; FK-749 125 mg (potency)) was 18.0% and the “Urinary excretions (%) 4-6 hr.” value ([1]; FK-749 125 mg (potency)) was 2.0%. The “Urinary excretions (%) Total (0-6 hr.)” value ([1]; FK-749 125 mg (potency)) was 60.1%.

For `CCCCCCCCCCCC(=O)N(C)CC(=O)O` [Compound 10-Na, N--Lauroylsarcosine], the “Urinary excretions (%) 0-2 hr.” value ([1]; Sulbenicillin 125 mg (potency)) was 33.5%, the “Urinary excretions (%) 2-4 hr.” value ([1]; Sulbenicillin 125 mg (potency)) was 10.0% and the “Urinary excretions (%) 4-6 hr.” value ([1]; Sulbenicillin 125 mg (potency)) was 1.0%. For the same compound, the “Urinary excretions (%) Total (0-6 hr.)” value ([1]; Sulbenicillin 125 mg (potency)) was 43.5%.

In the case of `O=C(N[C@@H](Cc1ccccc1)C(=O)O)c1ccccc1O` [Compound 19-Na, N--(2-Hydroxybenzoyl)phenylalanine], the “Urinary excretions (%) 0-2 hr.” value ([1]; 6059-S 125 mg (potency)) is reported as 38.0%, the “Urinary excretions (%) 2-4 hr.” value ([1]; 6059-S 125 mg (potency)) is reported as 20.0% and the “Urinary excretions (%) 4-6 hr.” value ([1]; 6059-S 125 mg (potency)) is reported as 3.1%. The “Urinary excretions (%) Total (0-6 hr.)” value ([1]; 6059-S 125 mg (potency)) was 61.1%.

With `CCCCCCCC(=O)Nc1ccc(C(=O)O)cc1` [Compound 17-Na, N--(n-Caprylyl)-4-aminobenzoic acid] the “Urinary excretions (%) 0-2 hr.” value ([1]; Cefmetazole 125 mg (potency)) was 45.0%, the “Urinary excretions (%) 2-4 hr.” value ([1]; Cefmetazole 125 mg (potency)) was 21.1% and the “Urinary excretions (%) 4-6 hr.” value ([1]; Cefmetazole 125 mg (potency)) was 3.0%. For the same compound, the “Urinary excretions (%) Total (0-6 hr.)” value ([1]; Cefmetazole 125 mg (potency)) was 64.6%.
